In patent publication US11993586B2, “Crystalline forms of potassium channel modulators” (Novartis AG, priority 2018, dated 2024) one finds Solid form conversion data, which are given here for four compounds.

The nature of this data set: Solid form stability (conversion on heating or storage, by 1H solution NMR and XRPD). Format: physicochemical. The protocol: Form C was obtained by slow evaporation from an IPA solution at RT. […] (onset temperatures) and 93.3° C. (peak temperature) (FIG. 5).
Form D was obtained via slow evaporation from EtOH solution at RT. […] (onset temperatures) and an exotherm at 88.5° C. (peak temperature) (FIG. 8).
(onset temperatures) (FIG. 9).
Form F was obtained by evaporation of DCM solution (100 mg scale) at RT for 1 day. […] (onset temperatures) and an exotherm at 86.9° C. (peak temperature) (FIG. 11).

Take `Cc1ccn(-c2nc(NC3CCC(F)(F)CC3)cc(N3CCOCC3)n2)n1` [Form C]: the Solid form conversion result (heated to 110° C.) is recorded as “converted to anhydrate Form B” and the Solid form conversion entry (stored at RT for 8 days) was “converted to anhydrate Form B”.
As for `Cc1ccn(-c2nc(NC3CCC(F)(F)CC3)cc(N3CCOCC3)n2)n1` [Form E], under “heated to 130° C.”, the Solid form conversion entry is reported as “converted to anhydrate Form B”.
Take `Cc1ccn(-c2nc(NC3CCC(F)(F)CC3)cc(N3CCOCC3)n2)n1` [Form F]: the Solid form conversion result (heated to 120° C.) was “converted to anhydrate Form B”.
Turning to `Cc1ccn(-c2nc(NC3CCC(F)(F)CC3)cc(N3CCOCC3)n2)n1` [Form D], the Solid form conversion result (stored at RT for a month) is reported as “converted to anhydrate Form B”.
